Assay [1] relates to HT-1080, BJeLR and Calu-1 cells. The assay can be described thus: Modulatory profiling of small molecule cell death inhibitors against erastin. The class given is cell-based, human. The following applies: erastin 10 μM, 24 hours, 10-point, 4-fold dilution series. The protocol:
The day before the experiment, cells were seeded in black, 384-well clear bottom plates (Corning) at a density of 1,000 cells/well using a Beckman Biomek FX Workstation. All compounds (except 3-methyladenine and chloroquine, which were diluted in water) were diluted in DMSO at 250 times the final highest test concentration, and aliquoted across a 384-well plate (Greiner, Monroe, N.C.). A ten-point, 4-fold dilution series of each inhibitor in DMSO was made using a multichannel pipette. Replicates of this mother plate were stored at −20° C. […] Medium was removed from cells and replaced with 36 μL medium containing DMSO (0.1%) or erastin (10 μM final concentration). Using the Biomek FX, 4 μL were then transferred from each inhibitor daughter plate into the DMSO-containing or erastin-containing assay plates. For 3-methyladenine and chloroquine, inhibitors were prepared fresh in media at 10-fold the final concentration in the presence of DMSO or 10 μM erastin. These solutions were manually pipetted onto cells in 384-well format. Assay plates were incubated at 37° C. for 24 hours. Viability was assessed using Alamar Blue.
The modulatory effect (Me) for drug-drug interactions was computed as follows. First, plate-based background correction was performed using Alamar Blue values from empty (cell-free) wells included on each plate. Next, within each experiment, 100% viability is determined as the average Alamar Blue score for cells treated with modulator=DMSO and lethal=DMSO, and all Alamar Blue values were scaled from 0 to 1 with the DMSO×DMSO condition=1. The individual effects of each modulator and lethal (e.g. in the presence of DMSO) at all tested doses were then ascertained. […] Next, BExp was compared to the actual observed viability. […] By default, Me in DMSO-treated cells is equal to 0. […] Me values for each inhibitor-lethal drug combination were hierarchically clustered and plotted as a heatmap using the heatmaps.2 function of the gplots library in R.

For assay [2], the system named is ROS production in HT-1080 cells. The assay can be described thus: Analysis of reactive oxygen species production by flow cytometry (H2DCFDA, C11-BODIPY, MitoSOX). The class given is cell-based, human. On the technique in general: Flow cytometry measures light scatter and fluorescence of single cells or particles in a stream.
Protocol: The day before the experiment, 200,000 cells/well were seeded in 6-well dishes (Corning Inc., Corning, N.Y.). […] Data was collected from the FL1 (H2DCFDA, C11-BODIPY) or FL2 channel (MitoSOX). A minimum of 10,000 cells were analyzed per condition.
The nature of assay [3]: 2,2-diphenyl-1-picrylhydrazyl (DPPH) assay, cell-free antioxidant potential. To be noted: test compound 0.05 mM, absorbance at 517 nm. The procedure:
The stable radical DPPH (Blois, 1958) was dissolved in methanol to a final concentration of 0.05 mM. 1 mL of DPPH solution was added to 2 μL of each test compound dissolved in DMSO. The final concentration of each test compound was 0.05 mM. Samples were inverted several times and allowed to incubate at room temperature for 10 minutes. Samples were then aliquoted to white 96-well solid-bottom dishes (Corning) and absorbance at 517 nm was recorded using a TECAN M200 plate reader. All values were normalized to background (methanol only). The experiment was repeated twice. Results within each trial normalized to DMSO (=1.0), then averaged across trials.
On the technique in general: Loss of DPPH colour is used to gauge radical scavenging.

For assay [4], the system named is erastin (10 μM)-treated HT-1080 cells. The assay can be described thus: Inhibition of death in erastin (10 μM)-treated HT-1080 cells, viability by Alamar Blue. The class given is cell-based, human. To be noted: for pEC50: Homo sapiens, HT-1080, inhibition of death in erastin (10 μM)-treated HT-1080 cells, Alamar Blue, from dose response curves; for ability to prevent erastin-induced death: erastin 10 μM, HT-1080 cells. The protocol:
(§1) Cell viability was typically assessed in 384-well format by Alamar Blue (Invitrogen) fluorescence (ex/em 530/590) measured on a Victor3 platereader (Perkin Elmer, Waltham, Mass.). In some experiments, Trypan Blue dye exclusion counting was performed using an automated cell counter (ViCell, Beckman-Coulter Inc., Brea, Calif.). Cell viability in test conditions is reported as a percentage relative to the negative control treatment.
Flow cytometry data was analyzed using FloJo (9.3.2, Tree Star, Inc., Ashland, Oreg.). Chemical structures were drawn using ChemDraw Ultra (Cambridgesoft, Cambridge, Mass.). Computational determination of log P (Slog P function) was performed using MOE 2010.10 (Chemical Computing Group, Montreal, […].). Viability data was analyzed using Excel (Microsoft Corp., […].). Summary data and heatmaps were generated using R. Dose-response curves were computed by 4-parameter logistic regression in Prism 5.0c (GraphPad Software). Images were manipulated using Photoshop CS4 and Illustrator CS4 (Adobe, San Jose, Calif.).
The ability of various compounds disclosed herein to inhibit death in erastin (10 μM)-treated HT-1080 cells were tested. Cell viability was assessed by Alamar Blue. EC50 values (nM) were computed from dose response curves.
In general terms: The colour change of resazurin is a common sign of viable cells or microbes.

Assay [5] deals with HT-1080 cells. The assay can be described thus: Erastin-induced death in HT-1080 cells with co-treated inhibitors (viability, microscopy). The class given is cell-based, human. To be noted: HT-1080 cells; added up to 6 hours after erastin. The procedure: as §1
Phase contrast images were acquired using an AMG EVOS FL (Advanced Microscopy Group) microscope equipped with a 10× phase-contrast objective. Three independent fields were acquired for each experimental condition. Representative samples from one field of view are shown.

pEC50: −log10 of the molar value. Read-outs that look alike come from different tables or passages of the source. Where a SMILES comes first, the peptide text is derived from it. [ ]: non-standard residue; d: D form. The star is where a group is joined. Nle = CCCC[C@H](N)C(=O)O; Cbz = O=C(OCc1ccccc1)*; CH2F = FC*

Take `CCCC[C@@H](C=O)NC(=O)[C@H](CC(C)C)NC(=O)[C@H](CC(C)C)NC(C)=O` [ALLN] (Ac-Leu-Leu-[Nle]-aldehyde): the “modulation of erastin-induced death” value in assay [1] is listed as “not consistently modulated”. As to `C=C(C)[C@H]1Cc2c(ccc3c2O[C@@H]2COc4cc(OC)c(OC)cc4[C@@H]2C3=O)O1` [rotenone], in assay [2] (HT-1080 cells, 6 hours, erastin 10 μM, rotenone 250 nM), the “MitoSOX-sensitive mitochondrial ROS production” value was “enhanced MitoSOX-sensitive ROS production”. Usually pEC50 stands for −log10 of the EC50, conventionally taken in molar units. A low value points to a high EC50. With `CCOC(=O)c1ccc(NC2CCCCC2)c([N+](=O)[O-])c1` [SRS8-24, ethyl 4-(cyclohexylamino)-3-nitrobenzoate], the “intrinsic antioxidant capability (DPPH)” value in assay [3] is “destroyed the antioxidant capability”. In addition, in assay [4], the pEC50 is below 5.00 and the “ability to prevent erastin-induced death” value is reported as “destroyed the antioxidant capability of Fer-1, as well as its ability to prevent erastin (10 μM)-induced death”. Take `COC(=O)C[C@H](NC(=O)[C@H](C)NC(=O)[C@@H](NC(=O)OCc1ccccc1)C(C)C)C(=O)CF` [z-VAD-fmk] (Cbz-Val-Ala-Asp(OMe)-CH2F): the “modulation of erastin-induced death” value in assay [1] is reported as “not consistently modulated”. On the same count and under the same terms, for `CO/C1=C\C(C)=C\[C@@H](C)[C@@H](O)[C@@H](C)C/C(C)=C/C=C/[C@H](OC)[C@@H]([C@@H](C)[C@@H](O)[C@H](C)[C@@]2(O)C[C@@H](O)[C@H](C)[C@@H](C(C)C)O2)OC1=O` [bafilomycin A1] the value was “not consistently modulated”.

In the case of `CCOC(=O)c1ccc(NC2CC2)c(N)c1` [SRS8-72, ethyl 3-amino-4-(cyclopropylamino)benzoate], the “intrinsic antioxidant capability (DPPH)” value in assay [3] is recorded as “retained equivalent intrinsic antioxidant capability”. Further, in assay [4], the pEC50 was 6.06 and the “ability to prevent erastin-induced death” value is on record as “an order of magnitude less potent than Fer-1”. In the case of `N#CC(=C(/N)Sc1ccccc1N)/C(C#N)=C(\N)Sc1ccccc1N` [U0126], the “protection from death on late addition” value in assay [5] is recorded as “substantial protection from death”. The “effect on erastin-induced ROS accumulation” value in assay [2] was “prevented the accumulation of H2DCFDA-sensitive ROS”. Moreover, in assay [1], the “modulation of erastin-induced death” value is given as “rescued from erastin-induced death”. As for `CN1C(=O)C(Cc2c[nH]c3ccccc23)NC1=S` (centres unmarked) [necrostatin-1], in assay [1], the “modulation of erastin-induced death” value is “not consistently modulated”.

Regarding `CCN(CC)CCCC(C)Nc1ccnc2cc(Cl)ccc12` (centres unmarked) [chloroquine], in assay [1], the “modulation of erastin-induced death” value is reported as “not consistently modulated”. The same measure, in the same setting: as for `Cn1cnc(N)c2ncnc1-2` [3-methyladenine], the entry is “not consistently modulated”; as for `CCOC(=O)[C@H]1O[C@@H]1C(=O)N[C@@H](CC(C)C)C(=O)NCCC(C)C` [E64d], “not consistently modulated”.

For the compound `Cc1c(C)c2c(c(C)c1O)CCC(C)(C(=O)O)O2` (centres unmarked) [trolox], the “protection from death on late addition” value in assay [5] is given as “substantial protection from death”. Besides, the “effect on erastin-induced ROS accumulation” value in assay [2] (erastin 10 μM, HT-1080 cells, H2DCFDA, C11-BODIPY) is recorded as “prevented the accumulation of H2DCFDA-sensitive ROS”. Further, the “modulation of erastin-induced death” value in assay [1] is listed as “rescued from erastin-induced death”.

Values taken from patent publication US9580398B2, “Compounds, compositions, and methods for modulating ferroptosis and treating excitotoxic disorders” (The Trustees of Columbia University in the City of New York, priority 2012, dated 2017).
